Inconclusive results and toxic doses are left out.
System: L1210 leukemia ip in BDF1 mice, survival T/C
Assay: NCI In Vivo Anticancer Drug Screen. Data for tumor model L1210 Leukemia (intraperitoneal) in B6D2F1 (BDF1) mice
Conditions: endpoint: mean survival time, higher = longer survival
Procedure, shortened: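 Tumor cells were implanted, animals were treated, and survival was followed. The result divides the treated measurement by the vehicle-control measurement.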

[1] = dose: 100.0 mg/kg/injection, schedule: Q04DX003 (ip), vehicle: saline with Tween-80
[2] = dose: 200.0 mg/kg/injection, schedule: Q04DX003 (ip), vehicle: saline with Tween-80
[3] = dose: 400.0 mg/kg/injection, schedule: Q04DX003 (ip), vehicle: saline with Tween-80
[4] = dose: 50.0 mg/kg/injection, schedule: Q01DX001 (ip), vehicle: saline
[5] = dose: 100.0 mg/kg/injection, schedule: Q01DX001 (ip), vehicle: saline
[6] = dose: 200.0 mg/kg/injection, schedule: Q01DX001 (ip), vehicle: saline
[7] = dose: 400.0 mg/kg/injection, schedule: Q01DX001 (ip), vehicle: saline
[8] = dose: 100.0 mg/kg/injection, schedule: Q01DX009 (ip), vehicle: Klucel (hydroxypropylcellulose) (HPC)
[9] = dose: 200.0 mg/kg/injection, schedule: Q01DX009 (ip), vehicle: Klucel (hydroxypropylcellulose) (HPC)
[10] = dose: 400.0 mg/kg/injection, schedule: Q01DX009 (ip), vehicle: Klucel (hydroxypropylcellulose) (HPC)
[11] = dose: 75.0 mg/kg/injection, schedule: Q01DX001 (ip), vehicle: other
[12] = dose: 150.0 mg/kg/injection, schedule: Q01DX001 (ip), vehicle: other
[13] = dose: 100.0 mg/kg/injection, schedule: Q04DX003 (ip), vehicle: Klucel (hydroxypropylcellulose) (HPC)
[14] = dose: 200.0 mg/kg/injection, schedule: Q04DX003 (ip), vehicle: Klucel (hydroxypropylcellulose) (HPC)
[15] = dose: 400.0 mg/kg/injection, schedule: Q04DX003 (ip), vehicle: Klucel (hydroxypropylcellulose) (HPC)
[16] = dose: 100.0 mg/kg/injection, schedule: Q01DX009 (ip), vehicle: saline

With N#CC(C#N)C(=O)c1ccccc1 the T/C (dose: 12.5 mg/kg/injection, schedule: Q01DX009 (ip), vehicle: saline with Tween-80) was 100 % of control, the T/C (dose: 25.0 mg/kg/injection, schedule: Q01DX009 (ip), vehicle: saline with Tween-80) was 100 % of control and the T/C (dose: 50.0 mg/kg/injection, schedule: Q01DX009 (ip), vehicle: saline with Tween-80) was 96 % of control. For the same compound, the T/C [1] was 95 % of control, the T/C [2] was 95 % of control and the T/C [3] was 89 % of control.
With O=C(CCCC(=O)N/N=C/c1c(Cl)cccc1Cl)N/N=C\c1c(Cl)cccc1Cl the T/C [4] was 100 % of control, the T/C [5] was 106 % of control and the T/C [6] was 100 % of control. The T/C [7] was 103 % of control.
In the case of CCOC(=O)C(CC)(OC(C)=O)C(=O)CBr (stereo not given), the T/C (dose: 75.0 mg/kg/injection, schedule: Q01DX001 (ip), vehicle: acetone) is reported as 87 % of control.
In the case of COc1ccc(OC)c(NC(=O)c2cccc(F)c2)c1, the T/C [8] is reported as 97 % of control, the T/C [9] is reported as 101 % of control and the T/C [10] is reported as 100 % of control.
For COc1ccc(C(=O)/C=C/c2cccc(OC)c2O)cc1, the T/C (dose: 75.0 mg/kg/injection, schedule: Q04DX003 (ip), vehicle: saline) was 101 % of control, the T/C (dose: 150.0 mg/kg/injection, schedule: Q04DX003 (ip), vehicle: saline) was 91 % of control and the T/C (dose: 300.0 mg/kg/injection, schedule: Q04DX003 (ip), vehicle: saline) was 101 % of control.
With O=C1CCC2=C3C4CCCCC4C(=O)C4CCCC(OC2C1)C34 (stereo not given) the T/C [11] was 105 % of control, the T/C [12] was 94 % of control and the T/C (dose: 300.0 mg/kg/injection, schedule: Q01DX001 (ip), vehicle: other) was 89 % of control.
With OC1CC23C=CC2(C1)C1(CC3)OCCO1 (stereo not given) the T/C (dose: 50.0 mg/kg/injection, schedule: Q04DX002 (ip), vehicle: saline with Tween-80) was 92 % of control, the T/C (dose: 100.0 mg/kg/injection, schedule: Q04DX002 (ip), vehicle: saline with Tween-80) was 92 % of control and the T/C (dose: 200.0 mg/kg/injection, schedule: Q04DX002 (ip), vehicle: saline with Tween-80) was 95 % of control. For the same compound, the T/C (dose: 400.0 mg/kg/injection, schedule: Q04DX002 (ip), vehicle: saline with Tween-80) was 98 % of control.
CCOC(=O)N1CCC2(CC1)NC(=O)c1ccccc1N2 was tested, and the T/C (dose: 100.0 mg/kg/injection, schedule: Q01DX009 (ip), vehicle: saline with Tween-80) was 98 % of control, the T/C [1] was 100 % of control and the T/C (dose: 200.0 mg/kg/injection, schedule: Q01DX009 (ip), vehicle: saline with Tween-80) was 97 % of control. The T/C [2] was 102 % of control, the T/C (dose: 400.0 mg/kg/injection, schedule: Q01DX009 (ip), vehicle: saline with Tween-80) was 97 % of control and the T/C [3] was 96 % of control.
With CCOC(=O)C(=Cc1cccc2ccccc12)C(=O)OCC the T/C [8] was 98 % of control, the T/C [13] was 101 % of control and the T/C [9] was 105 % of control. The T/C [14] was 98 % of control, the T/C [10] was 93 % of control and the T/C [15] was 92 % of control.
In the case of C=CCONC(=O)Oc1ccccc1, the T/C [11] is reported as 106 % of control and the T/C [12] is reported as 97 % of control.
For NC(=O)N(N)CCO, the T/C [5] was 102 % of control, the T/C [6] was 91 % of control and the T/C [7] was 93 % of control.
For NC(=S)N/N=C/c1c(Cl)n(C(=O)c2ccc(Cl)cc2)c2ccccc12, the T/C (dose: 50.0 mg/kg/injection, schedule: Q04DX002 (ip), vehicle: Klucel (hydroxypropylcellulose) (HPC)) was 91 % of control, the T/C (dose: 100.0 mg/kg/injection, schedule: Q04DX002 (ip), vehicle: Klucel (hydroxypropylcellulose) (HPC)) was 87 % of control and the T/C (dose: 200.0 mg/kg/injection, schedule: Q04DX002 (ip), vehicle: Klucel (hydroxypropylcellulose) (HPC)) was 91 % of control.
With C/C(=N/N(C)C)c1ccc(F)cc1 the T/C (dose: 6.25 mg/kg/injection, schedule: Q01DX009 (ip), vehicle: saline) was 94 % of control, the T/C (dose: 12.5 mg/kg/injection, schedule: Q01DX009 (ip), vehicle: saline) was 98 % of control and the T/C (dose: 25.0 mg/kg/injection, schedule: Q01DX009 (ip), vehicle: saline) was 106 % of control. For the same compound, the T/C (dose: 50.0 mg/kg/injection, schedule: Q01DX009 (ip), vehicle: saline) was 101 % of control and the T/C [16] was 94 % of control.
For CCC1C2Cc3ccc(O)cc3C1(CC)CCN2C (stereo not given), the T/C [4] was 101 % of control and the T/C [5] was 101 % of control.
In the case of Cc1nc(N)sc1N=Nc1cc(Br)ccc1Br, the T/C (dose: 75.0 mg/kg/injection, schedule: Q01DX001 (ip), vehicle: saline) is reported as 97 % of control and the T/C (dose: 150.0 mg/kg/injection, schedule: Q01DX001 (ip), vehicle: saline) is reported as 114 % of control.
CCOc1c(Br)cc(Br)cc1C=C(C#N)C#N was tested, and the T/C (dose: 25.0 mg/kg/injection, schedule: Q01DX009 (ip), vehicle: other) was 102 % of control, the T/C (dose: 50.0 mg/kg/injection, schedule: Q01DX009 (ip), vehicle: other) was 98 % of control and the T/C (dose: 100.0 mg/kg/injection, schedule: Q04DX003 (ip), vehicle: other) was 102 % of control. The T/C (dose: 200.0 mg/kg/injection, schedule: Q04DX003 (ip), vehicle: other) was 108 % of control.
CCSC(=N)N was tested, and the T/C (dose: 100.0 mg/kg/injection, schedule: Q04DX002 (ip), vehicle: saline) was 118 % of control, the T/C (dose: 200.0 mg/kg/injection, schedule: Q04DX002 (ip), vehicle: saline) was 104 % of control and the T/C (dose: 400.0 mg/kg/injection, schedule: Q04DX002 (ip), vehicle: saline) was 91 % of control.
In the case of CC#CCOCC1CO1 (stereo not given), the T/C [16] is reported as 100 % of control, the T/C (dose: 100.0 mg/kg/injection, schedule: Q04DX003 (ip), vehicle: saline sonified) is reported as 117 % of control and the T/C (dose: 200.0 mg/kg/injection, schedule: Q01DX009 (ip), vehicle: saline) is reported as 99 % of control. For the same compound, the T/C (dose: 200.0 mg/kg/injection, schedule: Q04DX003 (ip), vehicle: saline sonified) was 119 % of control, the T/C (dose: 400.0 mg/kg/injection, schedule: Q01DX009 (ip), vehicle: saline) was 96 % of control and the T/C (dose: 400.0 mg/kg/injection, schedule: Q04DX003 (ip), vehicle: saline sonified) was 106 % of control.
For c1cc2c(cc1CCCCCCCCCCc1ccc3c(c1)CCC3)CCC2, the T/C [5] was 97 % of control, the T/C [6] was 97 % of control and the T/C [7] was 89 % of control.
In the case of O=C(Nc1cccc(C2=NCCN2)c1)Nc1ccc(NC(=O)Nc2cccc(C3=NCCN3)c2)c(Cl)c1, the T/C (dose: 0.25 mg/kg/injection, schedule: Q01DX Z (ip), vehicle: carboxymethylcellulose (CMC)) is reported as 100 % of control, the T/C (dose: 0.5 mg/kg/injection, schedule: Q01DX Z (ip), vehicle: carboxymethylcellulose (CMC)) is reported as 105 % of control and the T/C (dose: 1.0 mg/kg/injection, schedule: Q01DX Z (ip), vehicle: carboxymethylcellulose (CMC)) is reported as 104 % of control. The T/C (dose: 2.0 mg/kg/injection, schedule: Q01DX Z (ip), vehicle: carboxymethylcellulose (CMC)) was 110 % of control, the T/C (dose: 16.0 mg/kg/injection, schedule: Q01DX Z (ip), vehicle: carboxymethylcellulose (CMC)) was 207 % of control and the T/C (dose: 16.0 mg/kg/injection, schedule: Q01DX Z (ip), vehicle: water) was 218 % of control. For the same compound, the T/C (dose: 31.0 mg/kg/injection, schedule: Q01DX Z (ip), vehicle: water) was 286 % of control, the T/C (dose: 62.0 mg/kg/injection, schedule: Q01DX Z (ip), vehicle: water) was 173 % of control and the T/C (dose: 62.0 mg/kg/injection, schedule: Q01DX Z (oral), vehicle: carboxymethylcellulose (CMC)) was 105 % of control. For the same compound, the T/C (dose: 125.0 mg/kg/injection, schedule: Q01DX Z (oral), vehicle: carboxymethylcellulose (CMC)) was 94 % of control, the T/C (dose: 250.0 mg/kg/injection, schedule: Q01DX Z (oral), vehicle: carboxymethylcellulose (CMC)) was 97 % of control and the T/C (dose: 500.0 mg/kg/injection, schedule: Q01DX Z (oral), vehicle: carboxymethylcellulose (CMC)) was 97 % of control.
With COc1cc2c(cc1OC)-c1ncnc(-c3ccccc3)c1C2 the T/C [13] was 95 % of control, the T/C [14] was 94 % of control and the T/C [15] was 101 % of control.
In the case of CSc1cc(=O)n2c3ccccc3c3ccnc1c32, the T/C (dose: 5.0 mg/kg/injection, schedule: Q01DX001 (ip), vehicle: saline) is reported as 98 % of control, the T/C (dose: 10.0 mg/kg/injection, schedule: Q01DX001 (ip), vehicle: saline) is reported as 98 % of control and the T/C (dose: 20.0 mg/kg/injection, schedule: Q01DX001 (ip), vehicle: saline) is reported as 100 % of control. The T/C (dose: 40.0 mg/kg/injection, schedule: Q01DX001 (ip), vehicle: saline) was 98 % of control, the T/C (dose: 80.0 mg/kg/injection, schedule: Q01DX001 (ip), vehicle: saline) was 100 % of control and the T/C [5] was 120 % of control.

— PubChem BioAssay AID248 (DTP/NCI, 2004)
